Experimental data from ChEMBL document CHEMBL1201862, “PubChem BioAssay data set” (2004).
Where a name gives a salt, the structure may show the parent alone. Calls of active or inactive are those of the source.

Tests used:
Vero = assay: cells; assay type: functional; conditions: Chlorocebus sabaeus
HeLa = assay: ATP-based viability loss in HeLa cells – cell-based, CellTiter-Glo luminescence, cherry-pick samples, cytotoxicity control for MITF activator project, dose response (AID 540259); assay type: functional; conditions: Homo sapiens
[1] = biological target: Peroxisome proliferator-activated receptor gamma/Nuclear receptor coactivator 1 (Homo sapiens, UniProt P37231); assay: TR-FRET dose response biochemical High Throughput Screening assay for agonists of the steroid receptor coactivator 1 (SRC-1) recruitment by the peroxisome proliferator-activated receptor gamma (PPAR gamma): non-selective agonists. [Related pubchem assays (depositor defined):AID1300, AID1808, AID504735, AID631]; assay type: protein assay
[2] = biological target: Peroxisome proliferator-activated receptor gamma/Nuclear receptor coactivator 2 (Homo sapiens, UniProt P37231); assay: (§1) TR-FRET dose response biochemical High Throughput Screening assay for agonists of the steroid receptor coactivator 2 (SRC-2) recruitment by the peroxisome proliferator-activated receptor gamma (PPAR gamma): non-selective agonists. [Related pubchem assays: 1297, 1032 ]; assay type: functional
[3] = biological target: Peroxisome proliferator-activated receptor gamma/Nuclear receptor coactivator 3 (Homo sapiens, UniProt P37231); assay: as §1, with “3 (SRC-3)” for “2 (SRC-2)”, “1301 (Confirmation screen.), 1048 (Primary screen.)]” for “1297, 1032 ]”; assay type: functional
[4] = biological target: T1, Ubiquitin-conjugating enzyme E2 N (Homo sapiens, UniProt P61088); assay type: functional
T1 sequence (P61088 whole entry): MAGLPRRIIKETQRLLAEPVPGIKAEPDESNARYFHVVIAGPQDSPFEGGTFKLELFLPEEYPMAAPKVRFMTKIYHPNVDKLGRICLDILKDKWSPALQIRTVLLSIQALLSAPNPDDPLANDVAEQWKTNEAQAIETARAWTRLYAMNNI

[5] = biological target: T1, Ubiquitin-conjugating enzyme E2 N; assay type: functional; remark: listed apart in the source
Bcl-2-related protein A1 = biological target: T2, Bcl-2-related protein A1 (Mus musculus, UniProt Q07440); assay type: functional;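 note: confirmatory dose–response counterscreen on Bfl-1, used to check hits from a UBC13 polyubiquitin inhibitor campaign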
T2 sequence (Q07440 whole entry): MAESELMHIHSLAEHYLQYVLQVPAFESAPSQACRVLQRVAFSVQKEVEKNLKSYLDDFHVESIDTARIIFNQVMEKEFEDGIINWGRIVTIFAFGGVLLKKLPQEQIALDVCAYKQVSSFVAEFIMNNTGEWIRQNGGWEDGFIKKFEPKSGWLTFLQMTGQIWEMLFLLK

Aminopeptidase N = biological target: T3, Aminopeptidase N (Plasmodium falciparum FcB1/Columbia, UniProt O96935); assay: malaria alanyl aminopeptidase activity blockers – biochemical, fluorogenic H-Leu-NHMec substrate, 1536-well (AID 1445); set-up: species or system Plasmodium falciparum 3D7, 3D7
T3 sequence (O96935 whole entry): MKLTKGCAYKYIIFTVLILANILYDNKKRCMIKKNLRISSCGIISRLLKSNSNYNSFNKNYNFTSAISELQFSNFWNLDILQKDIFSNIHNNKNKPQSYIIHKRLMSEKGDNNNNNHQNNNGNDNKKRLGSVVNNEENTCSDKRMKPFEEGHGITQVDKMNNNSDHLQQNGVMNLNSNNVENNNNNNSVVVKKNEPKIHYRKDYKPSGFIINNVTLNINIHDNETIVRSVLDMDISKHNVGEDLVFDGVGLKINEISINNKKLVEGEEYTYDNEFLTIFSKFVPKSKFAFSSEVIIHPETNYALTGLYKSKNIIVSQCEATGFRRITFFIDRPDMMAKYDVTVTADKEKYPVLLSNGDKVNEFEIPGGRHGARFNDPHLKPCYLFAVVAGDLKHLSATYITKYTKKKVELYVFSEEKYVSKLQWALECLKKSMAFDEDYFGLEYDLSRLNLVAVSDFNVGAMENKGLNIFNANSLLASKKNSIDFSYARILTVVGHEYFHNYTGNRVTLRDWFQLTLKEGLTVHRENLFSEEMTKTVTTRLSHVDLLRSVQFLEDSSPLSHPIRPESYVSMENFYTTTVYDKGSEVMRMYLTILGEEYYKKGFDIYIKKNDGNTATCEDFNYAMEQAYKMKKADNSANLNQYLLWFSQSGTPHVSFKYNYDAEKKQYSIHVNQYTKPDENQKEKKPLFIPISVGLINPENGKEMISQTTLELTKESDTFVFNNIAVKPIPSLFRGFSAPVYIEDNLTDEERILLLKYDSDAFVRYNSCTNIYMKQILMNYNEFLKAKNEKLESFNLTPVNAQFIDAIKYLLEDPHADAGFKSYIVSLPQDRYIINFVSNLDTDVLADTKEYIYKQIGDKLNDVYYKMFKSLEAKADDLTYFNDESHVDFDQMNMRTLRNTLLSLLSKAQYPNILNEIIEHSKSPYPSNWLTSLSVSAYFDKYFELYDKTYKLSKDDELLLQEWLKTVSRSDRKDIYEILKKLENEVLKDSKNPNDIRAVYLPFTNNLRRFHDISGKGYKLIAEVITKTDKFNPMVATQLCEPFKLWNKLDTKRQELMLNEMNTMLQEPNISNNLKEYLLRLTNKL

[6] = HEK-293T viability loss after treatment – luminescence, T-cell screen hits, cytotoxicity control for TCR NF-kB inhibitor project, dose response (AID 489026); assay type: functional, cell-based;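 note: cells exposed to compound about 14 hours before the viability readout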
[7] = THP-1 cell cytotoxicity, dose response, cytotoxicity control for non-replicating M. tuberculosis project (AID 489025); assay type: functional
[8] = Luminescence Cell-Based Dose Confirmation HTS to Identify Activators of 5'UTR Stem-Loop Driven Alpha-Synuclein mRNA Translation in H4 Neuroglioblastoma Cells. [Related pubchem assays: 1829 (Project Summary), 1814 (Primary HTS)]; assay type: functional
[9] = Luminescence Cell-Based Dose Response HTS to Identify Activators of Luciferase Translation or Activity in H4 […] Cells. [Related pubchem assays: 1829 (Project Summary), 1814 (Primary HTS)]; assay type: functional
cells = assay type: functional
H4 = assay: Luminescence Cell-Based Dose Response HTS to Identify Activators of 5'UTR Stem-Loop Driven Prion Protein mRNA Translation in H4 Neuroglioblastoma Cells. [Related pubchem assays: 1829 (Project Summary), 1814 (Primary HTS)]; assay type: functional; conditions: Homo sapiens
HEK293 [10] = assay: cells; assay type: functional, cell-based; conditions: Homo sapiens
[11] = biological target: T4, Nuclear receptor subfamily 0 group B member 1 (Homo sapiens, UniProt P51843); assay: Luminescence-based cell-based high throughput dose response assay for inhibitors of the orphan nuclear receptor subfamily 0, group B, member 1 (DAX1; NR0B1). [Related pubchem assays (depositor defined):AID504766, AID504790]; assay type: functional
T4 sequence (P51843 whole entry): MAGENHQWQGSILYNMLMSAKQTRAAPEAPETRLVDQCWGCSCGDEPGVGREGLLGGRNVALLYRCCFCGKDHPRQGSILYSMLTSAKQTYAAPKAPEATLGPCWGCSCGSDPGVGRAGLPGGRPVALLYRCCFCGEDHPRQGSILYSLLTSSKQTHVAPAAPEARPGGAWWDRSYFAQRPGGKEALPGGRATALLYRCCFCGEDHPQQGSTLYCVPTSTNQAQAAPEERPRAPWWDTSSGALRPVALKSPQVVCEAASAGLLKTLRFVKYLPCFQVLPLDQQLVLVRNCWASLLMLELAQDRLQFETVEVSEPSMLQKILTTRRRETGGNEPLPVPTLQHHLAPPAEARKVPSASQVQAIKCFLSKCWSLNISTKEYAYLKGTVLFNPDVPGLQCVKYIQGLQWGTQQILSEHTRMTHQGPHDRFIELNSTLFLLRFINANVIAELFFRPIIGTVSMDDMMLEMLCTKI

[12] = DRD fibroblast viability loss – cell-based, non-viral oncogenic, luminescence, dose response (AID 1934); assay type: functional; conditions: Homo sapiens
BJ [13] = assay: BJ-TERT fibroblast viability loss – cell-based, RAS-independent, luminescence, dose response (AID 1933); assay type: functional; conditions: Homo sapiens
BJ [14] = assay: cells; assay type: functional, cell-based; conditions: Homo sapiens
[15] = Luminescence Cell-Based Dose Response HTS to Identify Inhibitors of 5'UTR Stem-Loop Driven Prion Protein mRNA Translation in H4 Neuroglioblastoma Cells. [Related pubchem assays: 1827 (Project Summary), 1813 (Primary HTS)]; assay type: functional
[16] = alpha-synuclein stem-loop luciferase translation blockers – H4 neuroglioma cells, luminescence, confirmation (AID 1988); assay type: functional, cell-based
BJ [17] = assay: BJ-TERT-LT-ST fibroblast viability loss – cell-based, RAS-independent, luminescence, dose response (AID 1935); assay type: functional; conditions: Homo sapiens;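 note: BJ fibroblasts immortalized with TERT plus LT and ST oncogenes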
[18] = luciferase reporter signal suppression in cells – H4 neuroglioma cells, luminescence, dose response (AID 1990); assay type: functional, cell-based
[19] = Luminescence Cell-Based Dose Confirmation HTS to Identify Inhibitors of Platelet Dense Granule Release. [Related pubchem assays: 1663 (Primary HTS), 1678 (Summary of Project)]; assay type: functional
[20] = biological target: Luciferin 4-monooxygenase (Photinus pyralis, UniProt P08659); assay: inhibition of purified Photinus pyralis luciferase – biochemical, luminescence, dose response (AID 1891)
Escherichia coli [21] = assay: microbe, parasite or virus in culture
HEK293 [22] = assay: EBV LMP1 TES2 canonical NF-kB signalling blockers – cell-based, HEK293, luciferase, cherry-pick, dose response (AID 588343); assay type: functional; conditions: Homo sapiens
Escherichia coli [23] = assay: microbe, parasite or virus in culture; remark: listed apart in the source

Chain of Peroxisome proliferator-activated receptor gamma/Nuclear receptor coactivator 1 (P37231 whole entry): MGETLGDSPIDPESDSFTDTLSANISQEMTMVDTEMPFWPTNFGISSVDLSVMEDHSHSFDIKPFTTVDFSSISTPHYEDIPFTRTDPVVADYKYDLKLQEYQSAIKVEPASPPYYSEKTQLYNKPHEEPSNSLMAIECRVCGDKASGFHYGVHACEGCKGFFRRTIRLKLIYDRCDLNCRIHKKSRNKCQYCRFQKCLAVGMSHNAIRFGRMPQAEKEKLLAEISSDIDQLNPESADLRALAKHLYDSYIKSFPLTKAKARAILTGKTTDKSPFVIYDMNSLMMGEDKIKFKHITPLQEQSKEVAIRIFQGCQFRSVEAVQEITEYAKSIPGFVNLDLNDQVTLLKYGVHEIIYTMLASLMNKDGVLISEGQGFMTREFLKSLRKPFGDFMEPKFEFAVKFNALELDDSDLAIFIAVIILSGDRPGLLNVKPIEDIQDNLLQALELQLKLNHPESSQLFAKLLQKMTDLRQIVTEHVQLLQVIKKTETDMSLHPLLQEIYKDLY
Chain of Peroxisome proliferator-activated receptor gamma/Nuclear receptor coactivator 1 (Q15788 whole entry, further chain): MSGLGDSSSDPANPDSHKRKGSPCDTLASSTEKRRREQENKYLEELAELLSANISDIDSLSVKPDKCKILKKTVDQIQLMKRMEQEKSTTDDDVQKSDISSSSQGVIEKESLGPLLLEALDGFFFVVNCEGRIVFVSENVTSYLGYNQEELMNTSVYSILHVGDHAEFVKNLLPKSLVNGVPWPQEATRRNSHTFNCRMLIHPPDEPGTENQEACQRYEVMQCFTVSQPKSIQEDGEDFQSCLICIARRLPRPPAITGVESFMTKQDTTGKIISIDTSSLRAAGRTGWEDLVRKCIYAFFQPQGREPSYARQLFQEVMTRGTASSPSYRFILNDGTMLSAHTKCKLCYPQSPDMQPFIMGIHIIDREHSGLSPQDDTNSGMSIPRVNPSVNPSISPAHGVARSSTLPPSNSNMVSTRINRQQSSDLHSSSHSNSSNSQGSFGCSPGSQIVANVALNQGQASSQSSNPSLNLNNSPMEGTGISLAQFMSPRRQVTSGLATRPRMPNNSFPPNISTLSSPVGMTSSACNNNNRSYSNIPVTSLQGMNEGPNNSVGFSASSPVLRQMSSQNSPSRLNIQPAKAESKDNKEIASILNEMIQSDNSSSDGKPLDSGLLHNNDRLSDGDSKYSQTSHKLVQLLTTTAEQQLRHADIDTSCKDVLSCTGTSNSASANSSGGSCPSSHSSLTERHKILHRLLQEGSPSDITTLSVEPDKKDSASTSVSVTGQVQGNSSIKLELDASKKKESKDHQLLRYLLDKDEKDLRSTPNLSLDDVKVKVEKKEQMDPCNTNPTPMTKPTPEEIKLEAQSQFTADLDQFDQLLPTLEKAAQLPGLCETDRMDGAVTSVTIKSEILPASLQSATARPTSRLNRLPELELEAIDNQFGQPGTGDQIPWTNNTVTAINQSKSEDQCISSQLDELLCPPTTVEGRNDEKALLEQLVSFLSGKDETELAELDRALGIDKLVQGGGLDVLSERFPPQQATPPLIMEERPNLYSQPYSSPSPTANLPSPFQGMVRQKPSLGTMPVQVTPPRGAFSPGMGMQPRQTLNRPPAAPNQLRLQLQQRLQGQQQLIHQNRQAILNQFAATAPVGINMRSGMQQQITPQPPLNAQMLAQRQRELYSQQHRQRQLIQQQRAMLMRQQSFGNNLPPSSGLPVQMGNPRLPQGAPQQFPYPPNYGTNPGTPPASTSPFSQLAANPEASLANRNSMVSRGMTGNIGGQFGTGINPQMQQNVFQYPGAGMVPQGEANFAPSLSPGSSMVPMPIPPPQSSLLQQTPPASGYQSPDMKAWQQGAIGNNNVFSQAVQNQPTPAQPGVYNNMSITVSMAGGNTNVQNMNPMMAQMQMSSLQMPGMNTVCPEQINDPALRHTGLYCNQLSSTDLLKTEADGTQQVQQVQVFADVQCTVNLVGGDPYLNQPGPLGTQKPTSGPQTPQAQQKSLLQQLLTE
Chain of Peroxisome proliferator-activated receptor gamma/Nuclear receptor coactivator 2 (P37231 whole entry): as the sequence (P37231 whole entry) above
Chain of Peroxisome proliferator-activated receptor gamma/Nuclear receptor coactivator 2 (Q15596 whole entry, further chain): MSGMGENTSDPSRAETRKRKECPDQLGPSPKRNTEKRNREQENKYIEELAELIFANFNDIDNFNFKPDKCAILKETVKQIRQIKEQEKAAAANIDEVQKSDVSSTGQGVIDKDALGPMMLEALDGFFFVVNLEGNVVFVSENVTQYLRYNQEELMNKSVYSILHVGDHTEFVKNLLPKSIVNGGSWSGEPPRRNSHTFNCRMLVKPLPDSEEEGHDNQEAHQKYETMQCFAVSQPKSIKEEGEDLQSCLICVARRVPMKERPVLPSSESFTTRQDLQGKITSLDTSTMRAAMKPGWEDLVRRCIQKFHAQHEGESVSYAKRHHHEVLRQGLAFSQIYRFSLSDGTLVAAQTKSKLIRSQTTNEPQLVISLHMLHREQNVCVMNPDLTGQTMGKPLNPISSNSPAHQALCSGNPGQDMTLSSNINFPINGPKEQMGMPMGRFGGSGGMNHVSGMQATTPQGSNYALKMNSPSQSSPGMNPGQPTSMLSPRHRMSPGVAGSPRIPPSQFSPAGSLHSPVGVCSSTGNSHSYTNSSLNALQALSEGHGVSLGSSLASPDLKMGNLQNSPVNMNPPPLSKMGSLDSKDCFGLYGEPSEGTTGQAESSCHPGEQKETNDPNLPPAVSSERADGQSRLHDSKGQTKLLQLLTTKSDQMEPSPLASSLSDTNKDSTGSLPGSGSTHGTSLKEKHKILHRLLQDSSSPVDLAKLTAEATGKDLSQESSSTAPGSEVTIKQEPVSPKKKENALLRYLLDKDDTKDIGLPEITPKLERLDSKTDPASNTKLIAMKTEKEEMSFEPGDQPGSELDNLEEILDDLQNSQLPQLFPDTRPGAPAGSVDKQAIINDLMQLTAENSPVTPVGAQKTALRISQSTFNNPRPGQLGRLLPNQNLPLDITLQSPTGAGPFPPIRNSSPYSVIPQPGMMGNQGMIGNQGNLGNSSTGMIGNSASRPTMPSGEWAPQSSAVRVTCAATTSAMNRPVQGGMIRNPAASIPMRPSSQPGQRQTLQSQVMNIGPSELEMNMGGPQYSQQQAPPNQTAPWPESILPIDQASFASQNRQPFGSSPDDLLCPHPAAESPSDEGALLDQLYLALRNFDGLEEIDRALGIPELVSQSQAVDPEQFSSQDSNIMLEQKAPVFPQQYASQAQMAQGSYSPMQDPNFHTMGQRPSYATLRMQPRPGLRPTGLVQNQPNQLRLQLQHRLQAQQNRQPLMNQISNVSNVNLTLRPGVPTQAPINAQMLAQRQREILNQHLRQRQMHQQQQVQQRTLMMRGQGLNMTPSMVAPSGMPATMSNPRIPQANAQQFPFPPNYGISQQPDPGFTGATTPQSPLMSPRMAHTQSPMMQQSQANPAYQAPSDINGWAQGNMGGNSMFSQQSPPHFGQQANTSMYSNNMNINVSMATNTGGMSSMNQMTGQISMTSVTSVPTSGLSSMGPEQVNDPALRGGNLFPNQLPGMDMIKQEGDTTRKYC
Chain of Luciferin 4-monooxygenase (P08659 whole entry): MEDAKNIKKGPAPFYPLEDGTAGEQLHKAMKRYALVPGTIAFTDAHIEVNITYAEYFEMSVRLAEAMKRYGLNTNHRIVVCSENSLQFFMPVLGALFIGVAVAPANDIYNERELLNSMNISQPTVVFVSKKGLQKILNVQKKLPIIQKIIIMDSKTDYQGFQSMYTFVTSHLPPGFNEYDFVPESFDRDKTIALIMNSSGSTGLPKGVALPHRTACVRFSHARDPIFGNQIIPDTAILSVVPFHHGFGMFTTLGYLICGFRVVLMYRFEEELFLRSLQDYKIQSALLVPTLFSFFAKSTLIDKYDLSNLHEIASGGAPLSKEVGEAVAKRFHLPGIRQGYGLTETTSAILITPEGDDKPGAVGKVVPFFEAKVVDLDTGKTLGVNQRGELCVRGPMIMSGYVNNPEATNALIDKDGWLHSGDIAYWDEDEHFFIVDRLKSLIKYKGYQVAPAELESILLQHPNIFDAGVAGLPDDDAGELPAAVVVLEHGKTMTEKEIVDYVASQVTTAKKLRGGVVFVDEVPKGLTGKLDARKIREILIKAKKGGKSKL

For `COc1cc2nc(N3CCN(C(=O)c4ccco4)CC3)nc(N)c2cc1OC` [PRAZOSIN HYDROCHLORIDE], the CC50 (Vero) was 16.9 µM (active).

With `CN(C)c1ccnc2sc3c(SCc4ccc(Cl)cc4)ncnc3c12` the AC50 (HeLa) was 63.3 µM (active).

For `CCn1c(=O)cc(SCC(=O)Nc2ccc3c(c2)OCCO3)c2ccccc21`, the EC50 [1] was 7.45 µM (active), the EC50 [2] was 7.21 µM (active) and the EC50 [3] was > 79.4 µM (not active).

With `CCN(CC)CCOC(=O)c1ccc(NC(=O)c2cn(-c3ccccc3)nc2-c2cccs2)cc1` the IC50 [4] was 8.78 µM (active), the IC50 [5] was > 20 µM (inactive) and the IC50 (Bcl-2-related protein A1) was > 20 µM (inactive).

For `CCOC(=O)C1=C(COC(=O)c2ncc(Cl)c(Cl)c2Cl)NC(=O)NC1C` (stereo not drawn), the IC50 [4] was 7.88 µM (active), the IC50 [5] was 9.23 µM (active) and the IC50 (Bcl-2-related protein A1) was > 20 µM (inactive).

With `COc1ccc2c(c1)CC/C2=N\OC(=O)c1ccccc1C` the AC50 (HeLa) was 51.1 µM (active).

In the case of `c1ccc(CCn2nnc3ccccc32)cc1`, the AC50 (HeLa) is reported as 207 µM (active).

With `NC(=O)N/N=C\c1cc(Br)ccc1O` the IC50 (Aminopeptidase N) was 50.6 µM (active).

In the case of `Cn1cc(Cl)c(-c2nnc(S)n2-c2ccccc2)n1`, the EC50 [1] is reported as > 79.4 µM (inactive), the EC50 [2] is reported as > 79.4 µM (not active) and the EC50 [3] is reported as > 79.4 µM (not active).

In the case of `CCCc1cc(C(=O)Nc2cc(C)ccc2O)no1`, the IC50 [6] is reported as > 80 µM (inactive).

With `COc1cc2c(cc1OC)CN(C(=O)c1ccc([N+](=O)[O-])o1)CC2` the CC50 [7] was > 40 µM (active), the EC50 [8] was 11.6 µM (active) and the EC50 [9] was 37.5 µM (active). The IC50 (cells) was 0.14 µM (active) and the EC50 (H4) was > 120 µM (not active).

With `Cc1cc(C)c2c(N)c(C(=O)Nc3ccc(C)c(C)c3)sc2n1` the IC50 (HEK293 [10]) was > 67.6 µM (inactive) and the IC50 [11] was > 67.6 µM (inactive).

In the case of `Cc1cccc(N2CCN(C(=O)c3c(-c4ccccc4)noc3C)CC2)c1C`, the EC50 [12] is reported as 2.58 µM (active), the EC50 (BJ [13]) is reported as 4.1 µM (active) and the EC50 (BJ [14]) is reported as 89.6 µM (active). For the same molecule, the IC50 [6] was > 80 µM (inactive), the EC50 [15] was 17.1 µM (active) and the EC50 [16] was 6.76 µM (active). For the same molecule, the EC50 (BJ [17]) was 2.67 µM (active) and the EC50 [18] was 10.9 µM (active).

For `CCSc1nnc(NC(=O)C2CC2c2ccccc2)s1` (stereo not drawn), the IC50 (HEK293 [10]) was > 67.5 µM (inactive), the IC50 [11] was > 67.5 µM (inactive) and the EC50 [19] was > 112 µM (not active). For the same molecule, the EC50 [20] was > 112 µM (not active).

For `Cc1cc(CNC(=O)c2cc(COc3ccc(F)c(F)c3)on2)nn1C`, the AC50 (HeLa) was 66.8 µM (active).

With `C=CC[C@@H](CC/C=C/C=C/CC/C=C\[C@@H]1CSC([C@@H]2C[C@@H]2C)=N1)OC` the IC50 [6] was > 80 µM (inactive).

For `CCOC(=O)c1nc(NCc2ccccc2F)c2ccccc2n1`, the AC50 (Escherichia coli [21]) was > 150 µM (inactive), the AC50 (HEK293 [22]) was > 350 µM (inactive) and the AC50 (Escherichia coli [23]) was 52.7 µM (active).

For `C=C(C)c1cccc(C(C)(C)NC(=O)Nc2ccc(C)cn2)c1`, the IC50 (Aminopeptidase N) was 41.3 µM (active).

For `CC(=O)c1ccc(NC(=O)CSc2nnc(C3CC3)n2C2CC2)cc1`, the AC50 (Escherichia coli [23]) was 109 µM (active).

With `CCOc1cccc(C(=O)NC2=NCCS2)c1` the IC50 (HEK293 [10]) was > 67.5 µM (inactive) and the IC50 [11] was > 67.5 µM (inactive).

In the case of `O=C(N/N=C/c1cccn1-c1ccc([N+](=O)[O-])cc1)c1cccnc1`, the CC50 (Vero) is reported as > 25 µM (active).

In the case of `COc1ccc(NC(=O)C2C3C=CC(C3)C2C(=O)NCc2ccco2)c(OC)c1` (stereo not drawn), the IC50 (Aminopeptidase N) is reported as 89.2 µM (active).

With `Cn1c(=O)c2c(ncn2Cc2ccc(Cl)c(Cl)c2)n(C)c1=O` the IC50 [4] was 16.3 µM (active), the IC50 [5] was 7.05 µM (active) and the IC50 (Bcl-2-related protein A1) was > 20 µM (inactive).

With `CN(C)/C=C(/C(=O)c1ccc(Cl)c(Cl)c1)c1nnnn1-c1ccccc1` the IC50 (HEK293 [10]) was > 67.5 µM (inactive) and the IC50 [11] was > 67.5 µM (inactive).
